The values that follow are results of earlier work, collected in the PKSmart pharmacokinetics tables (Seal et al. 2025).

Series [1] can be described thus: not given per row; by the article one of three: Lombardo et al. 2013, J Clin Pharmacol 53:178, doi 10.1177/0091270012440282; 'New Drugs at FDA', novel drug approvals for 2021 and 2022 (the article's reference 43); Yap, Li, Chen 2006, J Mol Graph Model 24:383, doi 10.1016. The conditions noted are these: human; in vivo.
A short description of series [2]: Lombardo et al. 2013, J Clin Pharmacol 53:178, doi 10.1177/0091270012440282. The following applies: for Vd / clearance: in vivo, iv; for fraction unbound: plasma.

For `C/N=C1/CN(O)C(c2ccccc2)=c2cc(Cl)ccc2=N1`, the Vd (usually the apparent volume that relates the amount in the body to the concentration in plasma or blood) in series [1] was 0.25 L/kg. Also, in series [2] (rat), the Vd is 1.3 L/kg; the clearance (commonly a measure of how efficiently the substance is removed, as volume per time) was 7.8 mL/min/kg; the fraction unbound – broadly, the share of the substance not bound to proteins or other matrix – is 0.15.

Turning to `CON=C(C(=O)NC1C(=O)N2C(C(=O)O)=C(CSc3nc(=O)c(=O)[nH]n3C)CS[C@H]12)c1csc(N)n1` (stereo partly drawn), the Vd in series [1] was 0.09 L/kg; in series [2] (dog) it was 0.25 L/kg; in series [2] (monkey) it was 0.11 L/kg; in series [2] (rat) it was 1 L/kg. Further, the clearance in series [1] was 0.245 mL/min/kg; in series [2] (dog), 3.95 mL/min/kg; in series [2] (monkey) it was 0.19 mL/min/kg; in series [2] (rat), 20 mL/min/kg. Further, the fraction unbound in series [2] (dog) was 0.717; in series [2] (monkey), 0.0487; in series [2] (rat), 0.071.

With `O=c1ncnc2[nH][nH]cc1-2`, the Vd in series [1] was 0.58 L/kg; in series [2] (dog), 0.16 L/kg.

Regarding `NNc1nncc2ccccc12`, in series [1], the distribution volume (Vd) was 1.5 L/kg and the clearance is 70.5 mL/min/kg. In addition, in series [2] (dog), the fraction unbound was 0.29. In addition, in series [2] (rat), the Vd was 2.76 L/kg and the clearance is 139 mL/min/kg.

Consider `C[C@@H](O[C@H]1OCCN(Cc2nc(=O)[nH][nH]2)[C@H]1c1ccc(F)cc1)c1cc(C(F)(F)F)cc(C(F)(F)F)c1`, for which the Vd in series [1] is 0.94 L/kg; in series [2] (dog), 1 L/kg; in series [2] (rat), 3.2 L/kg. The fraction unbound in series [2] (dog) is 0.0009; in series [2] (rat) it was 0.002.

For the compound `CN(C)C1C(=O)C(C(N)=O)=C(O)[C@@]2(O)C(=O)C3=C(O)c4c(O)cccc4[C@@](C)(O)[C@H]3[C@H](O)[C@@H]12` (stereo partly drawn), in series [1], the volume of distribution (Vd) is 1.7 L/kg and the clearance was 2 mL/min/kg. For the same compound, in series [2] (dog), the Vd is 1.01 L/kg and the clearance is 1.47 mL/min/kg.

As for `CCCn1c(=O)[nH]c(=O)c2[nH]cnc21`, the clearance in series [1] was 4.16 mL/min/kg. In series [2] (dog), the volume of distribution (Vd) was 0.64 L/kg, the clearance was 2.4 mL/min/kg and the fraction unbound was 0.61. In addition, in series [2] (rat), the Vd was 0.27 L/kg, the clearance is 12 mL/min/kg and the free fraction (fraction unbound) was 0.19.

Take `CNC(C)C1CCC(N)C(OC2C(N)CC(N)C(OC3OCC(C)(O)C(NC)C3O)C2O)O1` (stereo not drawn): the clearance in series [1] is 1 mL/min/kg; in series [2] (dog), 2.1 mL/min/kg; in series [2] (rat), 7.8 mL/min/kg. In addition, the Vd in series [2] (dog) and in series [2] (rat) was 0.33 L/kg throughout.

As for `CON=C(C(=O)NC1C(=O)N2C(C(=O)[O-])=C(Cn3cc[n+]4ncccc34)CS[C@H]12)c1nsc(N)n1` (stereo partly drawn), the Vd was 0.24 L/kg in series [1], 0.2 L/kg in series [2] (dog), 0.2 L/kg in series [2] (monkey) and 0.2 L/kg in series [2] (rat). For the same compound, the clearance was 2.1 mL/min/kg in series [1], 3 mL/min/kg in series [2] (dog), 1.9 mL/min/kg in series [2] (monkey) and 9.4 mL/min/kg in series [2] (rat). Also, the fraction unbound was 0.9 in series [2] (dog), 0.9 in series [2] (monkey) and 0.93 in series [2] (rat).

On to `O=C1C=CC=CC1=C1NC(=C2C=CC=CC2=O)N(c2ccc(C(=O)O)cc2)N1`, for which, in series [1], the Vd is 0.2 L/kg and the clearance is 0.84 mL/min/kg. For the same compound, in series [2] (rat), the Vd is 0.46 L/kg and the clearance is 6.2 mL/min/kg.
